Measurements: US9845326B2, “Substituted 3,4-dihydropyrrolo[1,2-A]pyrazines as beta-secretase (BACE) inhibitors” (priority 2011, dated 2017)
pIC50: −log10 of the molar value.

How the values were obtained:
[1] = system: Aβ42; test: In vivo efficacy: brain Aβ42 lowering (ELISA); set-up: species or system mouse; conditions: 30 mg/kg, p.o., 4 h. after administration, soluble fraction
Excerpt: (§1) To determine whether acute administration of an Aβ42 peptide lowering agent would reduce Aβ peptide levels in vivo, non-transgenic rodents, e.g. mice or rats were used. Animals treated with the Aβ peptide lowering agent were examined and compared to those untreated or treated with vehicle and brain levels of soluble Aβ42 and total Aβ were quantitated by standard techniques, for example, using ELISA. Treatment periods varied from hours (h) to days and were adjusted based on the results of the Aβ42 lowering once a time course of onset of effect could be established.
(§2) A typical protocol for measuring Aβ42 lowering in vivo is shown but it is only one of many variations that could be used to optimize the levels of detectable Aβ. […] After a certain time, usually 2 or 4 h (as indicated in Table 7), the animals were sacrificed and Aβ42 levels were analysed.
(§3) Blood was collected by decapitation and exsanguinations in EDTA-treated collection tubes. […] The left hemisphere was stored at −18° C. for quantitative analysis of test compound levels. […]
(§4) Mouse brains from non-transgenic animals were resuspended in 8 volumes of 0.4% DEA (diethylamine)/50 mM NaCl containing protease inhibitors (Roche-11873580001 or 04693159001) per gram of tissue, e.g. for 0.158 g brain, add 1.264 ml of 0.4% DEA. […] Nine parts of supernatant were neutralized with 1 part 0.5 M Tris-HCl pH 6.8 and used to quantify Aβtotal and Aβ42. […]

[2] = system: Aβtotal; test: Cellular αlisa assay in SKNBE2 cells, Aβtotal; format: cell-based, human; conditions: Homo sapiens, SKNBE2, 18 h, SKNBE2 cells expressing hAPP695, 18 hours incubation; read-out: Cellular αlisa assay in SKNBE2 cells Aβtotal pIC50 (converted)
Description: (§5) In two αlisa assays the levels of Aβtotal and Aβ42 produced and secreted into the medium of human neuroblastoma SKNBE2 cells are quantified. The assay is based on the human neuroblastoma SKNBE2 expressing the wild type Amyloid Precursor Protein (hAPP695). The compounds are diluted and added to these cells, incubated for 18 hours and then measurements of Aβ42 and Aβtotal are taken. Aβtotal and Aβ42 are measured by sandwich αlisa. αlisa is a sandwich assay using biotinylated antibody AbN/25 attached to streptavidin coated beads and antibody Ab4G8 or cAb42/26 conjugated acceptor beads for the detection of Aβtotal and Aβ42 respectively. In the presence of Aβtotal or Aβ42, the beads come into close proximity. The excitation of the Donor beads provokes the release of singlet oxygen molecules that triggers a cascade of energy transfer in the Acceptor beads, resulting in light emission. Light emission is measured after 1 hour incubation (excitation at […] and emission at 615 nm).
(§6) From this an […] value (inhibitory concentration causing 50% inhibition of activity) can be obtained.

[3] = system: Aβ42; test: Cellular αlisa assay in SKNBE2 cells, Aβ42; format: cell-based, human; conditions: Homo sapiens, SKNBE2, 18 h, SKNBE2 cells expressing hAPP695, 18 hours incubation; read-out: Cellular αlisa assay in SKNBE2 cells Aβ42 pIC50 (converted)
Description: as §5, §6

[4] = biological target: BACE1 (Homo sapiens, UniProt P56817); test: Biochemical FRET based assay; conditions: Biochemical FRET based assay pIC50, recombinant BACE1 1 μg/ml, 120 min, room temperature, pH 5.0
BACE1, sequence (P56817 46-501): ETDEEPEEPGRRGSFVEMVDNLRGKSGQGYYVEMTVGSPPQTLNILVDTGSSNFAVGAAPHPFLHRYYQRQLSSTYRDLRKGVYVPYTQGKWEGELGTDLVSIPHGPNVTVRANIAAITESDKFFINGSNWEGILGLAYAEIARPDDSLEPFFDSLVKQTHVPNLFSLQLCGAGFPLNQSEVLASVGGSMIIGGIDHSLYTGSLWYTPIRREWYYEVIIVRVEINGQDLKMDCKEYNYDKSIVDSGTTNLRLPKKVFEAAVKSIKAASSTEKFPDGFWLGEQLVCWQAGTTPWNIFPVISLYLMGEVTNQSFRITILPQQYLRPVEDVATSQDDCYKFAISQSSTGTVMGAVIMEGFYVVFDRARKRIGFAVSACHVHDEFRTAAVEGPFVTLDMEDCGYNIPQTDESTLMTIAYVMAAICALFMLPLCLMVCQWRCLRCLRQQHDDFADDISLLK
Excerpt: This assay is a Fluorescence Resonance Energy Transfer Assay (FRET) based assay. The substrate for this assay is an APP derived 13 amino acids peptide that contains the ‘Swedish’ Lys-Met/Asn-Leu mutation of the amyloid precursor protein (APP) β-secretase cleavage site. This substrate also contains two fluorophores: (7-methoxy-coumarin-4-yl) acetic acid (Mca) is a fluorescent donor with excitation wavelength at 320 nm and emission at 405 nm and 2,4-Dinitrophenyl (Dnp) is a proprietary quencher acceptor. […] Upon cleavage by BACE1, the fluorophore Mca is separated from the quenching group Dnp, restoring the full fluorescence yield of the donor. The increase in fluorescence is linearly related to the rate of proteolysis (Koike H et al. J. Biochem. 1999, 126, 235-242).
Briefly in a 384-well format recombinant BACE1 protein in a final concentration of 1 μg/ml is incubated for 120 min at room temperature with 10 μm substrate in incubation buffer (40 mM Citrate buffer pH 5.0, 0.04% PEG, 4% DMSO) in the absence or presence of compound. Next the amount of proteolysis is directly measured by fluorescence measurement at T=0 and T=120 (excitation at 320 nm and emission at 405 nm). Results are expressed in RFU, as difference between T120 and T0
From this an IC50 value (inhibitory concentration causing 50% inhibition of activity) can be obtained.

[5] = system: Aβtotal; test: In vivo efficacy: brain Aβtotal lowering (ELISA); set-up: species or system mouse; conditions: 30 mg/kg, p.o., 4 h. after administration, soluble fraction
Excerpt: as §1, §2, §3, §4

How did the “Aβ42 (%Ctrl)_Mean” value [1] turn out when C[C@@]1(c2cc(NC(=O)c3ccc(F)cn3)ccc2F)Cn2cc(F)cc2C(N)=N1 [Compound 7, (R)-5-Fluoro-pyridine-2-carboxylic acid [3-(1-amino-7-fluoro-3-methyl-3,4-dihydro-pyrrolo[1,2-a]pyrazin-3-yl)-4-fluoro-phenyl]-amide] was run?
Its value is 73 %Ctrl.

What about the IC50 [2] of the same compound?
Its IC50 is 5.62 nM.

And the IC50 [3]?
The IC50 was 6.61 nM.

What about the pIC50 [4] of the same compound?
The pIC50 was 7.38.

What about the “Aβtotal (%Ctrl)_Mean” value [5] of the same compound?
The value was 99 %Ctrl.
